Data reported in patent US9212359B2, “Systems for induction of gene expression and protein depletion in yeast” (priority 2011, dated 2015).

Legend:
Type in all cases: cell-based, S. cerevisiae
GEV-GFP = GEV-GFP nuclear localization after β-estradiol pulse, single-cell microscopy (DBY11415)
Method: Fluorescence was measured with an epifluorescence Nikon Eclipse-TI inverted microscope using a Nikon 40×/0.95NA DIC Plan Apo objective. The microscope is equipped with a PerfectFocus system (Nikon) for maintaining the correct focal plane, a Clara CCD Camera (Andor DR328G) for recording fluorescence emission, and a TI-S-ER motorized stage with encoders to ensure near perfect return to marked stage positions (Nikon MEC56100). GEV-GFP emission was visualized at 525 nm (50-nm bandwidth) upon excitation at 470 nm (40-nm bandwidth) (Chroma #49002_Nikon ETGFP filter cube). […]
Overnight cultures of DBY11415 (MATa/MATα HTB2-mCherry-caURA3/HTB2 his3/HIS3, (gal1+PGAL10):: loxP/GAL1, gal4::LEU2/GAL4, HAP1+/hap1−, leu2Δ0::PACT1-GEV-GFP-KanMX/LEU2) were grown in LFM overnight to saturation. […] The Klett was monitored, and at Klett 40 cells were loaded into 96-well glass-bottomed optical plates for microscopy (Nunc #265300). […]
Image processing was performed by preprocessing the images in ImageJ and then using a custom written Matlab script to extract the intensities in the nuclei relative to the cytoplasm. Briefly, the image processing was done as follows: Fluorescence images were background subtracted using the rolling ball background subtraction command in ImageJ using a ball radius of 50 pixels. […]
These preprocessed images were then analyzed using a custom-written Matlab script. […]

DBY12021 [1] = assay: Genome-wide expression after β-estradiol pulse in phosphate-limited chemostat, microarray (DBY12021)
Method: (§1) For induction experiments, yeast were cultured in 500 mL chemostats (Sixfors; Bottmingen, Switzerland) under phosphate-limitation (20 mg/L potassium phosphate) and pulsed with 1 μM β-estradiol (Tocris Biosciences; Missouri). For the MET4 induction experiment, phosphate-limited media was supplemented with 200 mg/L methionine. Culture volume was maintained at 300 mL. 12-18 hours of batch phase growth prior to pump turn-on was initiated from a 1/60 dilution of cells grown overnight in the same medium. Cultures were grown at 30° C., stirred at 400 RPM, and aerated at 5 L/min with filtered humidified air.
RNA from cells was extracted, labeled, and hybridized to Agilent expression microarrays as described by (Brauer et al., 2008) with slight modifications. Briefly, RNA was extracted from frozen cells with a standard acid-phenol method and then cleaned with RNeasy (Qiagen). Cleaned mRNA was then converted to cDNA and subsequently converted to labeled cRNA with the Agilent Quick-Amp Labeling Kit (Part No. 5190-0424). Microarray hybridizations were performed for 17 hours at 65° C. and rotated on a rotisserie at 20 RPM. Microarrays were washed and then scanned with Agilent Feature Extractor Software version 9.5. Flagged features marked as unreliable were marked N/A. Raw green- and red-channel intensities were floored to a value of 350 (i.e., intensities below 350 were set equal to 350). If the numerator (red-channel, sample RNA) for a given measurement was floored, the denominator (green-channel, reference RNA) for that measurement was set to the average green channel intensity for that gene. The purpose of this smoothing process is to make genes with negligible red-channel signal intensity less sensitive to small fluctuations in the reference intensity. After flooring of the data, the log 2 ratios were computed.
For time series experiments, 5 mL of cells were taken per culture per time point. Reference RNA was taken from DBY12001 grown in a phosphate-limited chemostat at a dilution rate of 0.18 h^−1. Enrichment for gene ontology (GO) terms was determined using GO-term finder (Boyle et al., 2004).

PGAL1-CBF1 = assay: GEV-mediated induction of PGAL1-CBF1 transcript, microarray (DBY12040); conditions: by 5 minutes following addition of β-estradiol
Method: as §1
RNA from cells was extracted, labeled, and hybridized to Agilent expression microarrays as described by (Brauer et al., 2008) with slight modifications. Briefly, RNA was extracted from frozen cells with a standard acid-phenol method and then cleaned with RNeasy (Qiagen). Cleaned mRNA was then converted to cDNA and subsequently converted to labeled cRNA with the Agilent Quick-Amp Labeling Kit (Part No. 5190-0424). Microarray hybridizations were performed for 17 hours at 65° C. and rotated on a rotisserie at 20 RPM. Microarrays were washed and then scanned with Agilent Feature Extractor Software version 9.5. […]
For time series experiments, 5 mL of cells were taken per culture per time point. […] Enrichment for gene ontology (GO) terms was determined using GO-term finder (Boyle et al., 2004).

DBY12021 [2] = assay: Growth curves in YPD liquid with β-estradiol
Method: 100 μL of cells+media were grown on flat-bottom 96-well plates (Costar #3631). A600 was measured every 15 minutes in a Synergy HT (Biotek; Vermont) microplate reader. Cells were grown at 30° C. with medium shaking. Growth rates were computed with spline-fits using the grofit R package (KAHM et al. 2010).

[3] = system: TEV protease / N-end rule degradation; assay: Western blot of N-degron-tagged proteins after GEV-mediated induction of TEV; conditions: 1 μM β-estradiol, YPD; for half-life of NDeg-tagged protein: power-law fit of 10, 20 and 40-minute timepoints
Method: Total protein was extracted from ˜10 mL aliquots of cultures at ˜2×10^7 cells/mL using YPX extraction kit (Protein Discovery, Knoxville, Tenn.) with the addition of protease inhibitors (Roche tablets, cat#11836170001). Proteins were separated using Invitrogen NuPage precast 10% Bis-Tris gels and transferred to Invitrolon PVDF (Invitrogen cat#LC2005) according to the manufacturer's protocols. Primary antibody for the β-Myc epitope was mouse anti-human c-Myc from BD Pharmingen (cat#51-1485GR). Secondary antibody was goat anti-mouse-HRP (cat#115-035-003) from Jackson ImmunoResearch. Primary antibody dilution was typically 1/1000 and secondary antibodies were used at 1/10,000 dilution. Immunoreactive peptides were detected by incubation with ECL^+ detection reagent (Amersham/GE RPN2132) and imaging on HyBlot CL autoradiography film (Denville Scientific, Metuchen, N.J.). As a loading control, blots were probed with mouse monoclonal anti-β-Actin antibody loading control cat#ab8224, Abcam, Cambridge, Mass. ( 1/600 or 1/2000). Secondary antibody was as above, goat anti-mouse-HRP. Protein levels were quantified with the “Gel Analysis” feature in ImageJ and normalized to the t=0 levels in each time course.
MET4 and MET31 genes were chosen for use in a proof of principle experiment to exemplify the protein depletion method (FIG. 8). We constructed Ndeg-modified MET4 and MET31 alleles in separate strains containing GEV and PGAL1-TEV (see Materials and Methods). Cells were grown in rich medium (YPD) and treated with 1 μMβ-estradiol at ˜2×10^7 cells/mL. Western blots were performed on proteins extracted at several time points after induction (FIG. 9). Treatment of cultures with 1 μM β-estradiol had no effect on levels of Met4p-13Myc or Met31p-13Myc lacking NDeg (FIG. 9A, 9B).

[4] = two hours following saturating (1 μM) β-estradiol addition

C[C@]12CC[C@@H]3c4ccc(O)cc4CC[C@H]3[C@@H]1CC[C@@H]2O [β-estradiol]
concentration at which the initial rate of localization achieved its maximum (GEV-GFP): ≥ 1 µM
share of the entire genome affected by GEV-mediated activation (DBY12021 [1]; 3-hour time course, K-means clustering of time course data): less than 2%
share of all S. cerevisiae genes changed 2-fold (DBY12021 [1]; two hours following 1 μM β-estradiol): about 3%
number of genes that decrease 2-fold (DBY12021 [1]; [4]): 105 genes
number of genes that increase 2-fold (DBY12021 [1]; [4]): 94 genes
CBF1 transcript level, share of maximal value (PGAL1-CBF1): ~70%
effect on growth of GEV-containing cells (DBY12021 [2]; 10 nM β-estradiol): no longer show the growth defect
effect on growth of GEV-containing cells (DBY12021 [2]; high concentrations of β-estradiol): slowing of growth
β-estradiol toxicity, growth of a strain lacking the GEV system (DBY12021 [2]; strain lacking the GEV system): slow growth does not occur

B1: NDeg-Met31p-13Myc: N-degron-tagged, 13Myc-tagged Met31p target protein (DBY12234) (protein, UniProt Q03081 1-177, looked up)
Transcriptional regulator …: MKLAQDMNVDEIFLKQAAEAIAVISSSPTHTDPIIRELLHRIRQSSPLSAVIPAPENVLKAGEPENMARGLIRIPETQTKRTGGNNHSKEGAQLYSCAKCQLKFSRSSDLRRHEKVHSLVLPHICSNCGKGFARKDALKRHSNTLTCQRNRKKLSEGSDVDVDELIKDAIKNGTGLL
modifications: N-degron tag, 13Myc tag
half-life of NDeg-tagged protein [3]: 13.75 min

B2: Met31p-13Myc: 13Myc-tagged Met31p lacking NDeg (DBY12235), control protein (protein, UniProt Q03081 1-177, looked up)
Transcriptional regulator …: B1 Transcriptional regulator …
modifications: C-terminal 13Myc tag
notes: 13Myc-tagged Met31p lacking NDeg (DBY12235), control protein
effect of β-estradiol treatment on levels of protein lacking NDeg [3]: no effect

B3: NDeg-Met4p-13Myc: N-degron-tagged, 13Myc-tagged Met4p target protein (DBY12055) (protein, UniProt P32389 1-672, looked up)
Transcriptional activator of …: MKQEQSHEGDSYSTEFINLFGKDTATHPSSNNGANNNGMGSTNSLDQFVATASSSSSLVTSSENRRPLIGDVTNRGNTNLYDHAVTPEILLEQLAYVDNFIPSLDNEFSNVDWNVNTTHNNANNNGADTFSSINANPFDLDEQLAIELSAFADDSFIFPDEDKPSNNNNNSNNGNDDHSNHDVLHEDPSTNNRQRNPHFLTQRRNTFLTSQYDQSKSRFSSKNKRNGNNGETNNFGDNMQNNHPFEPNFMGSPSQFPADATNMTSIDHGGFTNVDITSTENNTTGDNGVDALSNLLHRTTHTPNRSSPLSNVTSAQNSSSQQRKHSESKVDSNSDNNSSNKAPNITVPDYSIIPTSVLVTLLPRVNVPNGAYNSLISAGFDNDQIDAIAAIMAYHHQKKIRENNSNNNKNINTNDSQEAPILKNINELLSVLIPPSPAETRGPTTLSTSPSFNEHGVVAEASFLSSILELGIKHPKSNNIHNQRQPSRNDHKISRESDGNNGNDNVHHNNAVIKSSTTRGDEIAKIRSEPTLNASSSDHKENSLKRSHSGDLKNKKVPVDRKYSDNEDDEYDDADLHGFEKKQLIKKELGDDDEDLLIQSKKSHQKKKLKEKELESSIHELTEIAASLQKRIHTLETENKLLKNLVLSSGETEGIKKAESLKKQIFEKVQKE
modifications: N-degron tag; 13Myc tag
half-life of NDeg-tagged protein [3]: 16 min

B4: Met4p-13Myc: 13Myc-tagged Met4p lacking NDeg (DBY11440), control protein (protein, UniProt P32389 1-672, looked up)
Transcriptional activator of …: B3 Transcriptional activator of …
modifications: 13Myc tag
notes: 13Myc-tagged Met4p lacking NDeg (DBY11440), control protein
effect of β-estradiol treatment on levels of protein lacking NDeg [3]: no effect
